In patent US20070276011A1, “Plasminogen Activator Inhibitor-1 Inhibitor” (priority 2003, published 2007):

Key:
recombinant human PAI-1 [1] = target: T1, recombinant human PAI-1 (Homo sapiens, UniProt P05121); test: PAI-1 inhibitory activity, Test Method B (tPA fluorogenic substrate, Tris buffer pH7.5, room temperature); assay type: biochemical; settings: 25 μM test compound; Test Method B (cells marked "method B")
Description: To a 90 μL solution obtained by diluting a DMSO solution of the test compound at 2.2-fold concentration of the test concentration (=final concentration when fluorogenic substrate was added) with a Tris buffer (pH7.5), 10 μL of 120 nM recombinant human PAI-1 solution adjusted with pH6.6 phosphate buffer was added, and incubated for 15 minutes at room temperature. 50 μL of 800IU/ml two-chain tPA (activity standard) solution adjusted with Tris buffer (pH7.5) was added, and incubated for 30 minutes at room temperature. […] Fluorescence was measured at the excitation wavelength=360 nm, emission wavelength=460 or 465 nm using a microplete reader (SPECTRAFLUOR or GENios) by TECAN. The fluorescence intensities in the presence of the PAI-1 as the control (DMSO) or in the absence of the PAI-1 (tPA alone) were taken as 100% and 0% of PAI-1 activities, respectively, and inhibitory ratios of PAI-1 activities in the presence of the test compound were obtained. […]
In either method of Test Method A or B, fluorescence of tPA activation by the test compound in the absence of PAI-1 or that of the test compound was not observed.
In the following table, “method B” described in the column of the inhibitory ratio means that the results were measured by the above Test Method B. The other results indicated were measured by the above Test Method A.

recombinant human PAI-1 [2] = target: T1, recombinant human PAI-1; test: PAI-1 inhibitory activity, Test Method A (tPA fluorogenic substrate, Tris buffer pH8.0, 37 C); assay type: biochemical; settings: for IC50: 50% inhibitory concentration of PAI-1 activity, according to the aforementioned method; for Inhibitory Ratio at 25 μM (%): test compound 25 μM, Test Method A
recombinant human PAI-1 [3] = target: T1, recombinant human PAI-1; test: Inhibition of complex formation of PAI-1 and tPA (SDS-PAGE); assay type: biochemical; settings: 100 μM concentration
Description: To a 2.5 μL solution obtained by diluting a DMSO solution of the test compound at 4-fold concentration of the test concentration with PBS(-), 5 μL of 150 nM recombinant human PAI-1 solution adjusted with a phosphate buffer (pH6.6, 0.05M Sodium Phosphate, 0.1 M NaCl, 1 mM EDTA) was added, and reacted for 5 minutes at 37° C. […] of 600 nM recombinant human one-chain tPA solution adjusted with PBS(-) was added, and further reacted for 5 minutes at 37° C. 10 μL of stop buffer (1.25 mM Tris-HCl pH6.8, 4% SDS, 0.01% BPB, 14% Glycerol) was added, heated for 30 seconds at 100° C., and then the total amount of 20 μL was applied to 10% SDS-PAGE gel electrophoresis. When the test compound was not added as being a control, a band of PAI-1-tPA complex was observed.

rat thrombosis model = test: Tests in rat thrombosis model (carotid shunt, thrombus weight); assay type: in vivo; settings: intraperitoneally 30 mg/kg/day for 8 days beforehand, control 94.9±3.3 mg, n=4, p<0.01
Description: Catheters for shunt were inserted into the right carotid artery and the left carotid artery of a rat, blood was circulated for 30 minutes, and weights of thromboses adhered to threads placed inside the catheters were measured.

[4] = test system: mouse heart transplantation model; test: Tests in mouse (murine) heart transplantation model; assay type: in vivo; settings: p<0.05

T1 sequence (P05121 24-402): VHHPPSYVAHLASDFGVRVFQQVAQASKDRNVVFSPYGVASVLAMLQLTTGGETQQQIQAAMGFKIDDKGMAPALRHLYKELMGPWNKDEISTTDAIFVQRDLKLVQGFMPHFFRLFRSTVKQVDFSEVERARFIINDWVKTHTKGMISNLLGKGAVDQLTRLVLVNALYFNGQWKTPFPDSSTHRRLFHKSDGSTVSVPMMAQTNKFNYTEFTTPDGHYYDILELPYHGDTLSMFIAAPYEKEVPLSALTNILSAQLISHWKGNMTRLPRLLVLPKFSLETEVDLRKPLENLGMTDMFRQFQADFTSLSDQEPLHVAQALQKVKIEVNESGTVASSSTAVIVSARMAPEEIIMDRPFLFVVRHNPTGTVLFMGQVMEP

Compound	Inhibitory Ratio at 25 μM (%) (recombinant human PAI-1 [1])	IC50 (recombinant human PAI-1 [2]) [µM]	Inhibitory Ratio at 25 μM (%) (recombinant human PAI-1 [2])	inhibition of the complex formation of PAI-1 and tPA observed with SDS-PAGE (recombinant human PAI-1 [3])	weight of thrombus (rat thrombosis model) [mg]	ratio of fibrous lesion 60 days after the transplantation ([4]; class II mismatch allograft, control 44.5±2.7%, n=5) [%]	Vascular endothelial hyperplasia (ratio of thickened endothelium to the internal elastic lamina); incidence of vascular intimal thickening ([4]; class II mismatch allograft, control 64.5±5.8%) [%]	graft survival ([4]; major mismatch allograft Balb/c to C57BL/6, intraperitoneally 20 mg/kg/day, control 7.2±0.2 days) [days]	melting point
O=C(O)c1cccc(C=C2SC(=O)N(Cc3ccc(Cl)c(Cl)c3)C2=O)c1 [compound 350, 5-(3-Carboxybenzylidene)-3-(3,4-dichlorobenzyl)thiazolidine-2,4-dione]	75 (method B) %	–	–	–	–	–	–	–	–
O=C1SC(=Cc2cc(O)c(O)c(O)c2)C(=O)N1Cc1ccc(Cl)c(Cl)c1 [compound 10, 5-(3,4,5-Trihydroxybenzylidene)-3-(3,4-dichlorobenzyl)thiazolidine-2,4-dione]	–	0.45	>99	completely inhibited	67.2 ± 6.3	18.8±2.2	21.7±4.9	9.0 ± 0.7	–
O=C1SC(=Cc2ccc(O)c(O)c2)C(=O)N1Cc1ccc(Cl)cc1Cl [compound 23, 5-(3,4-dihydroxybenzylidene)-3-(2,4-dichlorobenzyl)thiazolidine-2,4-dione]	–	0.25	>99	completely inhibited	–	–	–	–	202 °C (dec.)
COC(=O)c1ccc(CN2C(=O)SC(=Cc3ccc(O)c(C(=O)O)c3)C2=O)cc1 [compound 409, 5-(3-Carboxy-4-hydroxybenzylidene)-3-(4-methoxycarbonylbenzyl)-thiazolidine-2,4-dione]	23 (method B) %	–	–	–	–	–	–	–	–
